Reference: US20260184725A1, “CYCLIC 2-AMINOPYRIMIDINE COMPOUND AND PHARMACEUTICAL COMPOSITION AND USE THEREOF” (SHANGHAI INSTITUTE OF ORGANIC CHEMISTRY, CHINESE ACADEMY OF …, priority 2023, published 2026)

Assays:
Type in all cases: biochemical
EGFR^WT = target: T1, EGFR^WT (Homo sapiens, UniProt P00533); assay: ELISA kinase activity inhibition, wild-type EGFR; details: ATP 5 μM, read-out: The average IC50 value (nM) for inhibiting the activity of different tyrosine kinases, EGFR^WT
T1 construct: purchased Eurofins
Description: (§1) EGFR (WT) is a wild-type epidermal growth factor receptor.
(§2) Enzyme-Linked Immunosorbent Assay (ELISA) was used to detect the inhibitory effect of compounds on kinase activity.
(§3) The main experimental steps were as follows: Enzyme reaction substrate Poly (Glu, Tyr)4:1 was diluted with potassium free PBS (10 mM sodium phosphate buffer, 150 mM NaCl, pH 7.2-7.4) to 20 μg/mL, and reacted at 37° C. for 12 hours to 16 hours to coat the enzyme-linked immunosorbent assay plate. ATP solution (final concentration 5 μM) diluted with reaction buffer (50 mM HEPES pH 7.4, 50 mM MgCl2, 0.5 mM MnCl2, 0.2 mM Na3VO4, 1 mM DTT) was added to each well, followed by the test compound or solvent control, then the kinase reaction was initiated and the plate was shaken at 37° C. for 1 hour. The plate was washed three times with T-PBS, then added antibody PY99. The plate was shaken at 37° C. for 0.5 hours. After washing the plate with T-PBS, added horseradish peroxidase-labeled IgG and shaken at 37° C. for 0.5 hours. After washing the plate again, added 2 mg/mL of OPD colorimetric solution and incubated at 25° C. in the dark for 1 minutes to 10 minutes. […] The IC50 values were obtained from the inhibition curve analysis.

EGFR^19del/T790M/C797S = target: T2, EGFR^19del/T790M/C797S (Homo sapiens, UniProt P00533, T790M/C797S, form not given); assay: ELISA kinase activity inhibition, EGFR 19del/T790M/C797S; details: ATP 5 μM, read-out: The average IC50 value (nM) for inhibiting the activity of different tyrosine kinases, EGFR^19del/T790M/C797S
T2 construct: fused on or other part: Probably a GST tag on the cytoplasmic fragment, as in the vendor's product
Description: as §1, §2, §3

EGFR^L858R/T790M/C797S = EGFR^L858R/T790M/C797S (Homo sapiens, UniProt P00533, C797S/L858R/T790M); assay: ELISA kinase activity inhibition, EGFR L858R/T790M/C797S; details: ATP 5 μM, read-out: The average IC50 value (nM) for inhibiting the activity of different tyrosine kinases, EGFR^L858R/T790M/C797S
Description: as §2, §3

T1 sequence (P00533 25-1210): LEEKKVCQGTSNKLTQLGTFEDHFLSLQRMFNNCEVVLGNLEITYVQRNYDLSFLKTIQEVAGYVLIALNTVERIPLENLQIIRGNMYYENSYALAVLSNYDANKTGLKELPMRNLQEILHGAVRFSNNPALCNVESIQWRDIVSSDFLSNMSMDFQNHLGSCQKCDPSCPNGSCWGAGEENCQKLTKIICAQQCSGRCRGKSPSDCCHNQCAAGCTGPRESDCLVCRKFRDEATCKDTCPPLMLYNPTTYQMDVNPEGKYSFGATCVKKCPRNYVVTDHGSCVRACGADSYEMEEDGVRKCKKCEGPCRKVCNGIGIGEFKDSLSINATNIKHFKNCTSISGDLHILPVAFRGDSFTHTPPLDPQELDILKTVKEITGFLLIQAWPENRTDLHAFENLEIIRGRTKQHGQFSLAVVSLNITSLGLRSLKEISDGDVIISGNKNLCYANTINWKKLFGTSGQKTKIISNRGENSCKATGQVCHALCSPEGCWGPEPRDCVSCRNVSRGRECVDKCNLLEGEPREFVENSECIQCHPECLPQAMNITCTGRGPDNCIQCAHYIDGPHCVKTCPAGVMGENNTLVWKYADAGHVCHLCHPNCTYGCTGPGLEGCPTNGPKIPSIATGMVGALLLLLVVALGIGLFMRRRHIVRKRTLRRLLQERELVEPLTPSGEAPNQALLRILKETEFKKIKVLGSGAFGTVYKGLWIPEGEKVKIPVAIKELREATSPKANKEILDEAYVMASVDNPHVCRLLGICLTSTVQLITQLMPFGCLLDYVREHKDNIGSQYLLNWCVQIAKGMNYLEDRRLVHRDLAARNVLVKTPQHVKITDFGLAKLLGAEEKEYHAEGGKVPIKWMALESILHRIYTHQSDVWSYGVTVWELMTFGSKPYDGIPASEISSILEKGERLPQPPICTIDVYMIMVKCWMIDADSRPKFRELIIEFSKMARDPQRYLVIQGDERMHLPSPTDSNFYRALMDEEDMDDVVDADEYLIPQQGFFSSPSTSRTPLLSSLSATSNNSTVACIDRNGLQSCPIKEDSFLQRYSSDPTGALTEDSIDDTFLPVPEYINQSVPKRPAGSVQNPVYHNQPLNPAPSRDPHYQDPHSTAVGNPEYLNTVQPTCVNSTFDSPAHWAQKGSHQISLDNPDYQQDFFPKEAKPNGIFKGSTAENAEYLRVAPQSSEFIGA
EGFR^L858R/T790M/C797S, sequence (P00533 25-1210 T790M/C797S/L858R): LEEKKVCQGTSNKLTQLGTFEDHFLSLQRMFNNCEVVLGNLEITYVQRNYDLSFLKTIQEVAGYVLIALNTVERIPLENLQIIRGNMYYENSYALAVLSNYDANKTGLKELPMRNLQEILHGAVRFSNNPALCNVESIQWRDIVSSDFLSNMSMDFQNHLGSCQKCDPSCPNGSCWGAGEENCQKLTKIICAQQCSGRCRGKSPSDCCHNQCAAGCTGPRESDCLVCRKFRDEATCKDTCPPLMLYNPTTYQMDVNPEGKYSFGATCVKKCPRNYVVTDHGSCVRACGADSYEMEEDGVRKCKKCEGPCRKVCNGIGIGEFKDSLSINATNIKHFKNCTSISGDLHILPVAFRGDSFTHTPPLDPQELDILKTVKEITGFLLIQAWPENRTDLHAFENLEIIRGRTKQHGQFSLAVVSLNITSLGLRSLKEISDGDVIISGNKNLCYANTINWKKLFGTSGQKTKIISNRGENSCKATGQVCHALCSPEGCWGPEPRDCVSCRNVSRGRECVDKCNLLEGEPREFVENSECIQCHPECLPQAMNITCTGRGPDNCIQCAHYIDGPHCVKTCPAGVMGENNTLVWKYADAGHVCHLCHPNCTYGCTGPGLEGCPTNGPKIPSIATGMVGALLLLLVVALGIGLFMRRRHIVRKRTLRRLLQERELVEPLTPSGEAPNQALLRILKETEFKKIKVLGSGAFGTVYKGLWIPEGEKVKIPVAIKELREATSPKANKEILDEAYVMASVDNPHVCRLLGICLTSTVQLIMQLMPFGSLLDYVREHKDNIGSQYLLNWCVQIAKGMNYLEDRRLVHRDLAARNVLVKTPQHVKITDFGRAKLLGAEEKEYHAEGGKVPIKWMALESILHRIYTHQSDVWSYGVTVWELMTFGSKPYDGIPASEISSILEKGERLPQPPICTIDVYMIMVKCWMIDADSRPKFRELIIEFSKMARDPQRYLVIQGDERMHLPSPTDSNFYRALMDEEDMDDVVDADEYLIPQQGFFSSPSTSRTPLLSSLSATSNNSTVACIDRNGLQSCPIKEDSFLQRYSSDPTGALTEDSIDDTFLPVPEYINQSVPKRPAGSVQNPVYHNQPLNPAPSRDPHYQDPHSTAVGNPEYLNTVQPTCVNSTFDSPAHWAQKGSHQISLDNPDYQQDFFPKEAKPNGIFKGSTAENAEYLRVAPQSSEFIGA
T2 sequence (P00533 with tags, fused parts or gaps DEL746-750/T790M/C797S, form open): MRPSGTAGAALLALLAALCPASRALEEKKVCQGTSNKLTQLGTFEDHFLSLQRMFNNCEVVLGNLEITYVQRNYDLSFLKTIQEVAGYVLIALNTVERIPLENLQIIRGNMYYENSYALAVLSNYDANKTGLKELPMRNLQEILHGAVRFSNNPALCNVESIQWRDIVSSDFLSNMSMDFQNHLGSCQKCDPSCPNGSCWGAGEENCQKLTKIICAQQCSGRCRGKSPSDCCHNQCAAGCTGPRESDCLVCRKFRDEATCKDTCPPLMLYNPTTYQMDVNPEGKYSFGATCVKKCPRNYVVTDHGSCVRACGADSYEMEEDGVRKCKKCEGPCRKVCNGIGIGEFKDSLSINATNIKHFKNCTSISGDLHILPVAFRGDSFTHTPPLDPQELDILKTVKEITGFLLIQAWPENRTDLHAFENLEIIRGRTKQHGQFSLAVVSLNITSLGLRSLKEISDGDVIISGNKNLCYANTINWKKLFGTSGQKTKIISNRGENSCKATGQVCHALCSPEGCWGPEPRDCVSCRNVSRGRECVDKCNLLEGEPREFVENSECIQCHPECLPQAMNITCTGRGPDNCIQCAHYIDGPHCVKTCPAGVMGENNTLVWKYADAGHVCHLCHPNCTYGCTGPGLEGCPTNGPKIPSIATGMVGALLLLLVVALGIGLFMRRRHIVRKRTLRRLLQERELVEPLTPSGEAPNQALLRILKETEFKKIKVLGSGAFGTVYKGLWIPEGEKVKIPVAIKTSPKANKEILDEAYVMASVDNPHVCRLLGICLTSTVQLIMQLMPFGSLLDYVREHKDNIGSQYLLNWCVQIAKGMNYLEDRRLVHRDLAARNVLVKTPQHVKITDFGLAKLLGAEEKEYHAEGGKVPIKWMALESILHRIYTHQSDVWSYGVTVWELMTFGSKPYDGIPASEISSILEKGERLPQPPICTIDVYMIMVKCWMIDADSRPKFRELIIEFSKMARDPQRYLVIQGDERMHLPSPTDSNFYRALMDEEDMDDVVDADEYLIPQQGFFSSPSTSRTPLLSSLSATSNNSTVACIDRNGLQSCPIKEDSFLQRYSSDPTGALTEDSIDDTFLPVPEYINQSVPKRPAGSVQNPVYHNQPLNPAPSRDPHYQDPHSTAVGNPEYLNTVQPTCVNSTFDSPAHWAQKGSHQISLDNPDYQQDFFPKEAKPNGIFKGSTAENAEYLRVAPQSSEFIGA

Compound | IC50 (EGFR^WT) [nM] | IC50 (EGFR^19del/T790M/C797S) [nM] | IC50 (EGFR^L858R/T790M/C797S) [nM]
CCS(=O)(=O)n1cc2c3ccc(cc31)OCC1(CC1)Cn1cc(cn1)-c1cc(c(OC)cc1N1CCOCC1)Nc1nccc-2n1 [WQX-1-87, (Z)-1′-(ethylsulfonyl)-6′-methoxy-4′-morpholino spiro[cyclopropane-7′-9-oxa-3-aza-1(3,6)-indole-2(4,2)-pyrimidin-5(4,1)-pyrazol-4(1,3)-benzenacyclononaphane]] | > 1000 | 33 | 63.3
CCS(=O)(=O)n1cc2c3ccc(cc31)OCCCn1ccc(n1)-c1cc(c(OC3CC3)cc1N1CCOCC1)Nc1nccc-2n1 [FBH-4-24, (Z)-4^6-cyclopropoxy-1^1-(ethylsulfonyl)-4^4-morpholinyl-1^1H,5^1H-9-oxa-3-aza-1(3,6)-indole-2(4,2)-pyrimidine-5(4,1)-pyrazole-4(1,3)-benzocyclononaphthalene] | 189 | – | 98.5
CCS(=O)(=O)n1cc2c3ccc(cc31)OCCCn1ccc(n1)-c1cc(c(C3CC3)cc1N1CCOCC1)Nc1nccc-2n1 [FBH-3-66, (Z)-4^6-cyclopropyl-1^1-(ethylsulfonyl)-4^4-morpholino-1^1H,5^1H-9-oxa-3-aza-1(3,6)-indole-2(4,2)-pyrimidine-5(4,1)-pyrazol-4(1,3)-benzenacyclononaphane] | > 1000 | 33 | –
CCS(=O)(=O)n1cc2c3ccc(cc31)OCCCn1ccc(n1)-c1cc(c(OC)cc1N1CCOCC1)Nc1nccc-2n1 [FBH-4-6, (E)-1^1-(ethylsulfonyl)-4^6-methoxy-4^4-morpholinyl-1^1H,5^1H-9-oxa-3-aza-1(3,6)-indole-2(4,2)-pyrimidine-5(3,1)-pyrazole-4(1,3)-benzocyclononaphthalene] | > 1000 | – | 147
CCS(=O)(=O)n1cc2c3ccc(cc31)OCCCn1ccc(n1)-c1cc(c(C(F)(F)F)cc1N1CCOCC1)Nc1nccc-2n1 [FBH-3-92, (Z)-1^1-(ethylsulfonyl)-4^4-morpholinyl-4^6-(trifluoromethyl)-1^1H,5^1H-9-oxa-3-aza-1(3,6)-indole-2(4,2)-pyrimidine-5(4,1)-pyrazole-4(1,3)-benzenacyclononaphane] | > 1000 | – | 159
CCS(=O)(=O)n1cc2c3ccc(cc31)OCCCn1ccc(n1)-c1cc(c(OC(C)C)cc1N1CCOCC1)Nc1nccc-2n1 [FBH-3-84, (Z)-1^1-(ethylsulfonyl)-4^6-isopropoxy-4^4-morpholinyl-1^1H,5^1H-9-oxa-3-aza-1(3,6)-indole-2(4,2)-pyrimidin-5(4,1)-pyrazol-4(1,3)-benzocyclononaphthalene] | > 1000 | 267 | –
CCS(=O)(=O)n1cc2c3ccc(cc31)OCCCn1cc(cn1)-c1cc(c(OC)cc1N1CCOC(C)C1)Nc1nccc-2n1 (centres unmarked) [WQX-2-43, (Z)-1^1-(Ethylsulfonyl)-4^6-methoxy-4^4-(2-methylmorpholinyl)-1^1H,5^1H-9-oxa-3-aza-1(3,6)-indol-2(4,2)-pyrimidin-5(4,1)-pyrazol-4(1,3)-benzocyclononane] | 146 | – | 57.8
CCS(=O)(=O)n1cc2c3ccc(cc31)OCCCCCCOc1cc(ccc1N1CCOCC1)Nc1ncc(Cl)c-2n1 [reference compound] | 190 | 9 | 14.4
CCS(=O)(=O)n1cc2c3ccc(cc31)OCCCn1ccc(n1)-c1cc(c(OC(F)(F)F)cc1N1CCOCC1)Nc1nccc-2n1 [FBH-4-48, (Z)-1^1-(ethylsulfonyl)-4^4-morpholinyl-4^6-(trifluoromethoxy)-1^1H,5^1H-9-oxa-3-aza-1(3,6)-indole-2(4,2)-pyrimidine-5(4,1)-pyrazole-4(1,3)-benzocyclononaphthalene] | > 1000 | – | 135
CCS(=O)(=O)n1cc2c3ccc(cc31)OCCCn1cc(cn1)-c1cc(c(OC)cc1CN1CCOCC1)Nc1nccc-2n1 [WQX-2-35, (Z)-1^1-(ethylsulfonyl)-4^6-methoxy-4^4-(morpholinomethyl)-1^1H,5^1H-9-oxa-3-aza-1(3,6)-indole-2(4,2)-pyrimidine-5(4,1)-pyrazole-4(1,3)-benzocyclononane] | 141 | 1 | 14.1
CCS(=O)(=O)n1cc2c3ccc(cc31)OCCCn1cc(cn1)-c1cc(c(OC)cc1N1CCOCC1)Nc1ncc(F)c-2n1 [WQX-2-79, (Z)-1^1-(ethylsulfonyl)-2^5-fluoro-4^6-methoxy-4^4-morpholinyl-1^1H,5^1H-9-oxa-3-aza-1(3,6)-indole-2(4,2)-pyrimidin-5(4,1)-pyrazol-4(1,3)-benzenacyclononaphane] | 255 | – | 102
CCS(=O)(=O)n1cc2c3ccc(cc31)OCCCn1ccc(n1)-c1cc(c(C(C)C)cc1N1CCOCC1)Nc1nccc-2n1 [FBH-3-48, (Z)-1^1-(ethylsulfonyl)-4^6-isopropyl-4^4-morpholino-1^1H,5^1H-9-oxa-3-aza-1(3,6)-indole-2(4,2)-pyrimidine-5(4,1)-pyrazole-4(1,3)-benzenacyclononaphane] | > 1000 | 8.2 | –

Continued, values first:

IC50 (EGFR^WT) [nM] | IC50 (EGFR^19del/T790M/C797S) [nM] | IC50 (EGFR^L858R/T790M/C797S) [nM] | Compound
> 1000 | 29 | 69.7 | CCS(=O)(=O)n1cc2c3ccc(cc31)OCCCn1cc(cn1)-c1cc(cc(C=C(C)C)c1N1CCOCC1)Nc1ncc(Cl)c-2n1 [HC9003, 2^5-Chloro-1^1-ethylsulfonyl-4^4-morpholino-4^5-2-methylpropan-1-en-1-yl-1^1H,5^1H-9-oxa-3-aza-1(3,6)-indole-2(4,2)-pyrimidine-5(4,1)-pyrazole-4(1,3)-benzenacyclononaphane]
> 1000 | 45.8 | 45.8 | CCS(=O)(=O)n1cc2c3ccc(cc31)OCC1(CC1)Cn1cc(cn1)-c1cc(ccc1N1CCOCC1)Nc1ncc(Cl)c-2n1 [HC9282, (Z)-5′-Chloro-1′(Ethylsulfonyl)-4′-morpholino spiro [Cyclopropane-1,7′-9-oxa-3-aza-1(3,6)-indole-2(4,2)-pyrimidine-5(4,1)-pyrazolol-4(1,3)-benzenacyclononaphane]]
> 1000 | 30.5 | 30.5 | CCS(=O)(=O)n1cc2c3ccc(cc31)OCC(C)Cn1cc(cn1)-c1cc(ccc1N1CCOCC1)Nc1ncc(Cl)c-2n1 (centres unmarked) [HC9281, 2^5-chloro-1^1-ethylsulfonyl-7-methyl-4^4-morpholino-1^1H, 5^1H-9-oxa-3-aza-1(3,6)-indole-2(4,2)-pyrimidine-5(4,1)-pyrazole-4(1,3)-benzenacyclononaphane]
154 | 35.1 | 35.1 | CCS(=O)(=O)n1cc2c3ccc(cc31)OCCCn1cc(cn1)-c1cc(c(OC)cc1N1CCOCC1)Nc1ncc(Cl)c-2n1 [HC9284, 2^5-Chloro-1^1-ethylsulfonyl-4^6-methoxy-4^4-morpholin-1^1H,5^1H-9-oxa-3-aza-1(3,6)-indole-2(4,2)-pyrimidine-5(4,1)-pyrazole-4(1,3)-benzenacyclononaphane]
> 1000 | 192 | 343 | CCS(=O)(=O)n1cc2c3ccc(cc31)OCCCn1cc(cn1)-c1cc(cc(CC(C)C)c1N1CCOCC1)Nc1ncc(Cl)c-2n1 [HC90032, 2^5-chloro-1^1-ethylsulfonyl-4^4-morpholino-4^5-2-methylpropyl-1^1H,5^1H-9-oxa-3-aza-1(3,6)-indole-2(4,2)-pyrimidin-5(4,1)-pyrazol-4(1,3)-benzenacyclononaphane]
> 1000 | 129 | 167 | CCS(=O)(=O)n1cc2c3ccc(cc31)OCCCn1cc(cn1)-c1cc(c(C)cc1N1CCOCC1)Nc1ncc(Cl)c-2n1 [HC916, 2^5-chloro-1^1-ethylsulfonyl-4^6-methyl-4^4-morpholino-1^1H,5^1H-9-oxa-3-aza-1(3,6)-indole-2(4,2)-pyrimidin-5(4,1)-pyrazol-4(1,3)-benzenacyclononaphane]
> 1000 | > 1000 | > 1000 | CCS(=O)(=O)n1cc2c3ccc(cc31)OCCCn1cc(cn1)-c1cc(cc(CCC(C)(C)C)c1N1CCOCC1)Nc1ncc(Cl)c-2n1 [HC90042, 2^5-chloro-4^5-(E)-3,3-dimethylbutyl)-1^1-ethylsulfonyl-4^4-morpholin-1^1H,5^1H-9-oxa-3-aza-1(3,6)-indole-2(4,2)-pyrimidin-5(4,1)-pyrazolol-4 (1,3)-benzenacyclononaphane]
> 1000 | 6.8 | – | Cc1cc(N2CCOCC2)c2cc1Nc1ncc(Cl)c(n1)-c1cn(C)c3cc(ccc13)OCCCn1cc-2cn1 [HC8991, 2^5-Chloro-1^1,4^6-dimethyl-4^4-morpholino-1^1H,5^1H-9-oxa-3-aza-1(3,6)-Indole-2(4,2)-Pyrimidin-5(4,1)-Pyrazolol-4(1,3)-benzenacyclononaphane]
